According to patent US10029022B2, “Nuclear medicine diagnostic imaging agent” (Kyoto University, priority 2015, dated 2018):

Columns and labels:
[1] = molecular target: T1, EGFR (EGFR Kinase Enzyme System, WT) (Homo sapiens, UniProt P00533); assay: EGFR Tyrosine Kinase Inhibiting Activity Measurement 1 (ADP-Glo), WT; format: biochemical; conditions: for IC50: 1 h incubation with ATP/Poly(Glu, Tyr), >10: <50% enzyme inhibition at 10 μM
T1 construct: purchased Promega V3831
Procedure: (§1) The measurement was carried out according to the Promega protocol applications guide. That is, a buffer solution (40 mM Tris-HCl, pH 7.5, 20 mM MgCl2, 50 μM DTT and 0.1 mg/mL BSA) was used as a dilute solution. The concentration of each compound started at 100 μM (the final concentration, including 1% DMSO) with 5-fold dilutions with the buffer solution. Thus, ten concentrations of each compound were prepared. The initial concentration of PD158780 alone was set at 10 μM (the final concentration, including 1% DMSO) but it was prepared in the same manner as the compound group. Then, 2 μL of each concentration of each compound thus obtained was added to each well of a 384-well plate. Furthermore, 4 μL (20 ng) of an EGFR Kinase Buffer that came with each EGFR Kinase Enzyme System was added to each well, which then was incubated at room temperature for ten minutes. Subsequently, 4 μL of mixed solution of ATP (10 μM) and Poly(Glu, Tyr) (2 μg) substrate was added to each well, which then was incubated at room temperature for one hour. Then, 10 μL of ADP-Glo™ Reagent (ADP-Glo™ Kinase Assay, Promega) was added to each well, which then was reacted at room temperature for 40 minutes. Furthermore, 20 μL of Kinase Detection Reagent (ADP-Glo™ Kinase Assay, Promega) was added to each well, which then was reacted at room temperature for one hour. […] From the data thus obtained, dose-response curves and IC50 were calculated using GraphPad Prism 5 (GraphPad Software, Inc.).

EGFR (L858R) = molecular target: T2, EGFR (L858R) (Homo sapiens, UniProt P00533, L858R); assay: EGFR Tyrosine Kinase Inhibiting Activity Measurement 1 (ADP-Glo), L858R; format: biochemical; conditions: 1 h incubation with ATP/Poly(Glu, Tyr); >10: <50% enzyme inhibition at 10 μM
T2 construct: purchased Promega V5322
Procedure: as §1

EGFR (T790M) = molecular target: T3, EGFR (T790M) (Homo sapiens, UniProt P00533, T790M); assay: EGFR Tyrosine Kinase Inhibiting Activity Measurement 1 (ADP-Glo), T790M; format: biochemical; conditions: 1 h incubation with ATP/Poly(Glu, Tyr); >10: <50% enzyme inhibition at 10 μM
T3 construct: purchased Promega V4506
Procedure: as §1

EGFR (T790M, L858R) = molecular target: T4, EGFR (T790M, L858R) (Homo sapiens, UniProt P00533, L858R/T790M); assay: EGFR Tyrosine Kinase Inhibiting Activity Measurement 1 (ADP-Glo), DM; format: biochemical; conditions: 1 h incubation with ATP/Poly(Glu, Tyr); >10: <50% enzyme inhibition at 10 μM
T4 construct: purchased Promega V5324
Procedure: as §1

L858R-mutated EGFR = molecular target: T5, L858R-mutated EGFR (Homo sapiens, UniProt P00533, L858R); assay: EGFR Tyrosine Kinase Inhibiting Activity Measurement 2, L858R; format: biochemical
T5 construct: purchased Promega V5322
Procedure: as §1, with “minutes.” for “minutes. Furthermore, 20 μL of Kinase Detection Reagent (ADP-Glo™ Kinase Assay, Promega) was added to each well, which then was reacted at room temperature for one hour.”

L858R/T790M-mutated EGFR = molecular target: T6, L858R/T790M-mutated EGFR (Homo sapiens, UniProt P00533, L858R/T790M); assay: EGFR Tyrosine Kinase Inhibiting Activity Measurement 2, L858R/T790M; format: biochemical
T6 construct: purchased Promega V5324
Procedure: as §1, with “minutes.” for “minutes. Furthermore, 20 μL of Kinase Detection Reagent (ADP-Glo™ Kinase Assay, Promega) was added to each well, which then was reacted at room temperature for one hour.”

[2] = system: H3255 cells (L858R mutation); assay: Cellular Uptake Inhibition Experiment 1 (gefitinib), H3255; format: cell-based, human; conditions: gefitinib 0, 0.5, 1, 2.5 μM, 2 h incubation; FIG. 1
Procedure: (§2) Two types of EGFR mutation-positive human non-small cell lung cancer cells H3255 (L858R mutation) and H1975 (L858R/T790M mutation) were cultured in a DMEM/Ham's F-12 medium (Nacalai Tesque) containing glutamine, antibiotics (penicillin-streptomycin), and 20% fetal bovine serum.
(§3) The binding specificity of H4 to each mutated EGFR-TK was evaluated by a cellular uptake inhibition experiment using H3255 cells, which are L858R mutant cells, and H1975 cells, which are L858R/T790M mutant cells. H3255 and H1975 cells (4×10^5 cells/well) were cultured in a 12-well plate for 48 hours. After the medium was removed, each well was washed with PBS(−) once. Each fetal bovine serum-free DMEM/Ham's F-12 medium with [^18F]H4 (0.15 MBq/mL) and gefitinib (0, 0.5, 1, and 2.5 μM) added thereto was added to each well, which then was incubated in a CO2 incubator for two hours. Each well was washed with 0.1% Tween 80/1% DMSO/PBS(−) three times, and the cells were dissolved with 0.2 N NaOH. The radioactivity of each solution was measured with the gamma counter, and the protein concentration was determined using a BCA Protein Assay Kit (Pierce, Rockford, Ill.) and then the measurement results were analyzed.

[3] = system: H1975 cells (L858R/T790M mutation); assay: Cellular Uptake Inhibition Experiment 1 (gefitinib), H1975; format: cell-based, human; conditions: regardless of gefitinib (0, 0.5, 1, 2.5 μM), 2 h incubation; FIG. 1
Procedure: as §2, §3

[4] = system: H3255 cells (L858R mutation); assay: Cellular Uptake Inhibition Experiment 2 (AZD9291), H3255; format: cell-based, human; conditions: AZD9291 0, 1, 5 μM pre-incubated 30 min, then 2 h; FIG. 2
Procedure: as §2
(§4) H3255 and H1975 cells (4×10^5 cells/well) were cultured in a 12-well plate for 24 hours. After the medium was removed, each well was washed with PBS(−) once. […] [^18F]H4 (148 kBq/well) was added to each well, which then was incubated in the 5% CO2 incubator at 37° C. for two hours. Each well was washed with 0.1% Tween 80/1% DMSO/PBS(−) three times, and the cells were dissolved with 0.2 N NaOH. The radioactivity of each solution was measured with the gamma counter and the protein concentration was determined using the BCA Protein Assay Kit (Pierce, Rockford, Ill.) and then the measurement results were analyzed.

[5] = system: H1975 cells (L858R/T790M mutation); assay: Cellular Uptake Inhibition Experiment 2 (AZD9291), H1975; format: cell-based, human; conditions: regardless of AZD9291 (0, 1, 5 μM), 2 h incubation; FIG. 2
Procedure: as §2, §4

[6] = system: H3255 tumor-bearing mouse; assay: Biodistribution Experiment in tumor-bearing mice; format: in vivo
Procedure: 1×10^7 cells/mouse of H3255 cells suspended in BD Matrigel™ Basement Membrane Matrix was implanted to the right shoulder of a 5-week-old male BALB/c nu/nu mouse (Shimizu Laboratory Supplies), and thereby a tumor-bearing mouse was prepared. They were used for experiments, with the tumor being 1 cm or smaller in diameter.
[^18F]H4 was dissolved in saline containing 0.1% Tween 80 so as to be 6 μCi/100 μL and 100 μL thereof was administered to each tumor-bearing mouse through a tail vein. The mice were decapitated/slaughtered at predetermined time points (30 minutes, 1 hour, 2 hours, and 3 hours after administration). The blood was collected and tissues were removed and then the mass and the accumulated radioactivity were measured. The amount of accumulation (% dose/g) was calculated from the radioactivity per unit weight and the accumulation in the tissues was evaluated. FIG. 3 is a graph showing an example of variations with time of the accumulation of [^18F]H4 in each organ.

[7] = system: H3255 tumor (L858R mutation); assay: Biodistribution Experiment (Blocking Experiment), H3255; format: in vivo, mouse; conditions: AZD9291 (17 μg) administered simultaneously, 180 min after administration; FIG. 4
Procedure: At 180 minutes after the administration, they were slaughtered and H3255 tumor tissues were removed. The mass and the accumulated radioactivity were measured, and the amount of accumulation (% dose/g) was calculated from the radioactivity per unit weight. […]

[8] = system: H1975 tumor (L858R/T790M mutation); assay: Biodistribution Experiment (Blocking Experiment), H1975; format: in vivo, mouse; conditions: with or without AZD9291 (17 μg), 180 min after administration; FIG. 4
Procedure: At 180 minutes after the administration, they were slaughtered and H3255 tumor tissues were removed. The mass and the accumulated radioactivity were measured, and the amount of accumulation (% dose/g) was calculated from the radioactivity per unit weight. This was carried out in the same manner as above except that AZD9291 was not administered.
Furthermore, this experiment was carried out in the same manner as above except that H1975 tumor-bearing mice were used.

[9] = system: H3255 tumor-bearing mouse; assay: PET/CT Imaging 1; format: in vivo; conditions: 180 to 200 min after tail vein administration; FIG. 5
Procedure: [^18F]H4 (9.8 MBq/150 μL) was administered to a H3255 tumor-bearing mouse through a tail vein. He was anesthetized by inhalation of isoflurane (2.0%) from 175 minutes after the administration and then was imaged for 20 minutes from 180 minutes after the administration using a PET/CT device (FX-3300). Thereafter, CT imaging (60 kV, 320 μA) was carried out. The image reconstruction was carried out using 3D-OSEM.
Animal: Balb/c nu/nu mouse, 10 w, male, 22.2 g
Injection dose: 264 μCi/150 μL
(§5) Image acquisition: 180 to 200 min after administration
(§6) Condition of CT: 60 kV, 320 μA

[10] = system: H1975 tumor-bearing mouse; assay: PET/CT Imaging 2; format: in vivo; conditions: 180 to 200 min after administration; FIG. 6
Procedure: PET/CT Imaging 2 was carried out in the same manner as in PET/CT Imaging 1 except that a H1975 tumor-bearing mouse was used and the following imaging conditions were employed.
Animal: Balb/c nu/nu mouse, 9 w, male, 20.9 g
Injection dose: 486 μCi/150 μL
as §5, §6

[11] = 30 min after tail vein administration, average of 5 mice
[12] = 60 min after tail vein administration, average of 5 mice
[13] = 120 min after tail vein administration, average of 5 mice
[14] = 180 min after tail vein administration, average of 5 mice
[15] = from 30 min to 180 min after administration

T4 sequence (P00533 25-1210 T790M/L858R): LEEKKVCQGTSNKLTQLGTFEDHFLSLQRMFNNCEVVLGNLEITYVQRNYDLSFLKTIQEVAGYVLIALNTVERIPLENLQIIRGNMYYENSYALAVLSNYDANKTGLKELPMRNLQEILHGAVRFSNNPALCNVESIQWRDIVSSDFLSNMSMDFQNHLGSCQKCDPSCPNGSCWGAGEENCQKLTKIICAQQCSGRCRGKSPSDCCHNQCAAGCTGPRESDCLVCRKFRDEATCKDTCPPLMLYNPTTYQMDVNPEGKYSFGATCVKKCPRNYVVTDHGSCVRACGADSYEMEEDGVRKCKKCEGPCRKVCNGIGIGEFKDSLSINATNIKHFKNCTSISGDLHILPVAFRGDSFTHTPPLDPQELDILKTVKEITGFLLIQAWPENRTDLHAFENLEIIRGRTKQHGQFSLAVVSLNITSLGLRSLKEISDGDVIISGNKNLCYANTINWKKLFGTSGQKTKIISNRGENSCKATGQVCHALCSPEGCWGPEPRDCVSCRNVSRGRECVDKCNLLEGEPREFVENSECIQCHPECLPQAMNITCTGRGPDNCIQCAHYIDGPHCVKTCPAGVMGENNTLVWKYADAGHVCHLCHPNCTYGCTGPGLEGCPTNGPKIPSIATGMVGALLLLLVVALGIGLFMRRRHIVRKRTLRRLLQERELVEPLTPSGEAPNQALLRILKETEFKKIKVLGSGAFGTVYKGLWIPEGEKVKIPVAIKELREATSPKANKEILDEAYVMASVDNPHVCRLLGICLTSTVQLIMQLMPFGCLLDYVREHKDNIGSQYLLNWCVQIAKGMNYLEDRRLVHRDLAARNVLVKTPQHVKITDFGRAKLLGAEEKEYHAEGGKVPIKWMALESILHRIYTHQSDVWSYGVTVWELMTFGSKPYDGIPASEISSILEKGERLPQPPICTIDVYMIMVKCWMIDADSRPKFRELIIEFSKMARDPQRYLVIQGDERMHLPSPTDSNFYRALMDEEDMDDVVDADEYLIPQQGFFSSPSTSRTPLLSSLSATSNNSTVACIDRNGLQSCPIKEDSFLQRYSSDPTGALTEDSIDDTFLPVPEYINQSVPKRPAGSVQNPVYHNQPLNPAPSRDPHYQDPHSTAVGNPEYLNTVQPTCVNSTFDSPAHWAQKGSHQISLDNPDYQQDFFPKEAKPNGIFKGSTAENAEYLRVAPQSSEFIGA
T1 sequence (P00533 25-1210): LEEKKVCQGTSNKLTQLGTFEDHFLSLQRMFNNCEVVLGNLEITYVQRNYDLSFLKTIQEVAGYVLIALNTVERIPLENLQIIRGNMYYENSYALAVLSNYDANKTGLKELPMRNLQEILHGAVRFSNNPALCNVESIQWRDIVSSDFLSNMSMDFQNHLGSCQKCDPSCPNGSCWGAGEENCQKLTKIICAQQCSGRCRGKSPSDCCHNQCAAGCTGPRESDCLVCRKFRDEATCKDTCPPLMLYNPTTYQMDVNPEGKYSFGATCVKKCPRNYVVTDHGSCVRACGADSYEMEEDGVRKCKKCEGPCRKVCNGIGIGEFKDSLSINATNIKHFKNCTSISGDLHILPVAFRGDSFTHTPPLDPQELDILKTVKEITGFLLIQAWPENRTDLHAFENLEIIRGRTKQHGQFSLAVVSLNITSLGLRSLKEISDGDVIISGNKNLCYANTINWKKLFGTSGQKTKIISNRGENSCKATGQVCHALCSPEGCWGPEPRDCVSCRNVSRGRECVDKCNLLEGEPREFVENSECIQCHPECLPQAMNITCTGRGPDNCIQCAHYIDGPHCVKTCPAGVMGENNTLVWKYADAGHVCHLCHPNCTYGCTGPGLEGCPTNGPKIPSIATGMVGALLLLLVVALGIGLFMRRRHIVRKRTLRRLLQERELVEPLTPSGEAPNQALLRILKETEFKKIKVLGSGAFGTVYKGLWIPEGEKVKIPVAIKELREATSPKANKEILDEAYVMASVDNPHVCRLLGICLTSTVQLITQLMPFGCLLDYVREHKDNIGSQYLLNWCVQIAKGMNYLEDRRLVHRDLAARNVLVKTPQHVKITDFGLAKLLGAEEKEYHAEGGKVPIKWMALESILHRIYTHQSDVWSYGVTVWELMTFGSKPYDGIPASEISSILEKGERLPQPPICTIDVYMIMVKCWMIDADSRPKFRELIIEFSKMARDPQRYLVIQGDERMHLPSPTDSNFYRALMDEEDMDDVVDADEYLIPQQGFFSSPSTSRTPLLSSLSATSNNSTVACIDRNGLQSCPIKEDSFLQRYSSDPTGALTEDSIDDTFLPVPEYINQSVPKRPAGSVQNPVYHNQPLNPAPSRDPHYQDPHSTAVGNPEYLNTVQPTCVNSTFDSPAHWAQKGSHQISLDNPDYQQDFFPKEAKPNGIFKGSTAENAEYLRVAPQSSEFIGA
T3 sequence (P00533 25-1210 T790M): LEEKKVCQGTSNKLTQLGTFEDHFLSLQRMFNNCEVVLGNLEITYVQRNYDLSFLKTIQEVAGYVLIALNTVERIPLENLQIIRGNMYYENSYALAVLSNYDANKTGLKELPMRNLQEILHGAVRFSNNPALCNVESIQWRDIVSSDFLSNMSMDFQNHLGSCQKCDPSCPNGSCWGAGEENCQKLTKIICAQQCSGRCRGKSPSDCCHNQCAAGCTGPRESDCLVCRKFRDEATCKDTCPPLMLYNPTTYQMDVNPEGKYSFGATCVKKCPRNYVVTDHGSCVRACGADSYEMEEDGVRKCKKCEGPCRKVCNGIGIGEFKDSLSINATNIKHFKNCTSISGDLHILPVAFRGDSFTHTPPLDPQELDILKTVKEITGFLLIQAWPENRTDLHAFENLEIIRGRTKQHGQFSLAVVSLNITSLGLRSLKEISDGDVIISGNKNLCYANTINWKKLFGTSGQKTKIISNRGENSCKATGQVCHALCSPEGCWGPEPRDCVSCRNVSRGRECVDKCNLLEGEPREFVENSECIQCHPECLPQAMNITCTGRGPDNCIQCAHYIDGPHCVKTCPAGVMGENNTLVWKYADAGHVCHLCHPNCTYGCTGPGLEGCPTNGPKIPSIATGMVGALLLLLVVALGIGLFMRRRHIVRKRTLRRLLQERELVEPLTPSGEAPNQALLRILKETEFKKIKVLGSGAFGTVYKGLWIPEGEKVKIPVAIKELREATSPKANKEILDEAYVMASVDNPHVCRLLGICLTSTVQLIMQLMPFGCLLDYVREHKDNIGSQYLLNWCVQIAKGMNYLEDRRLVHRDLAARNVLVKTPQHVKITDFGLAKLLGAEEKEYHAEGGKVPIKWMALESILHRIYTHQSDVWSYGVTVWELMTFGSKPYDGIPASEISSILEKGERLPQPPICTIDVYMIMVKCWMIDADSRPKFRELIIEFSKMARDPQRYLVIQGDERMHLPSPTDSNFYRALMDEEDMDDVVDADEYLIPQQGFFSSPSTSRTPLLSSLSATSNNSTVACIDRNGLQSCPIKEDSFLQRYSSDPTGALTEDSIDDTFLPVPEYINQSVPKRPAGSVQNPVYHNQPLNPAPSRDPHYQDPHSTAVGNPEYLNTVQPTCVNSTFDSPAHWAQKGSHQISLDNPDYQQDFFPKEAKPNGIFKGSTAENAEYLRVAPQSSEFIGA
T2 sequence (P00533 25-1210 L858R): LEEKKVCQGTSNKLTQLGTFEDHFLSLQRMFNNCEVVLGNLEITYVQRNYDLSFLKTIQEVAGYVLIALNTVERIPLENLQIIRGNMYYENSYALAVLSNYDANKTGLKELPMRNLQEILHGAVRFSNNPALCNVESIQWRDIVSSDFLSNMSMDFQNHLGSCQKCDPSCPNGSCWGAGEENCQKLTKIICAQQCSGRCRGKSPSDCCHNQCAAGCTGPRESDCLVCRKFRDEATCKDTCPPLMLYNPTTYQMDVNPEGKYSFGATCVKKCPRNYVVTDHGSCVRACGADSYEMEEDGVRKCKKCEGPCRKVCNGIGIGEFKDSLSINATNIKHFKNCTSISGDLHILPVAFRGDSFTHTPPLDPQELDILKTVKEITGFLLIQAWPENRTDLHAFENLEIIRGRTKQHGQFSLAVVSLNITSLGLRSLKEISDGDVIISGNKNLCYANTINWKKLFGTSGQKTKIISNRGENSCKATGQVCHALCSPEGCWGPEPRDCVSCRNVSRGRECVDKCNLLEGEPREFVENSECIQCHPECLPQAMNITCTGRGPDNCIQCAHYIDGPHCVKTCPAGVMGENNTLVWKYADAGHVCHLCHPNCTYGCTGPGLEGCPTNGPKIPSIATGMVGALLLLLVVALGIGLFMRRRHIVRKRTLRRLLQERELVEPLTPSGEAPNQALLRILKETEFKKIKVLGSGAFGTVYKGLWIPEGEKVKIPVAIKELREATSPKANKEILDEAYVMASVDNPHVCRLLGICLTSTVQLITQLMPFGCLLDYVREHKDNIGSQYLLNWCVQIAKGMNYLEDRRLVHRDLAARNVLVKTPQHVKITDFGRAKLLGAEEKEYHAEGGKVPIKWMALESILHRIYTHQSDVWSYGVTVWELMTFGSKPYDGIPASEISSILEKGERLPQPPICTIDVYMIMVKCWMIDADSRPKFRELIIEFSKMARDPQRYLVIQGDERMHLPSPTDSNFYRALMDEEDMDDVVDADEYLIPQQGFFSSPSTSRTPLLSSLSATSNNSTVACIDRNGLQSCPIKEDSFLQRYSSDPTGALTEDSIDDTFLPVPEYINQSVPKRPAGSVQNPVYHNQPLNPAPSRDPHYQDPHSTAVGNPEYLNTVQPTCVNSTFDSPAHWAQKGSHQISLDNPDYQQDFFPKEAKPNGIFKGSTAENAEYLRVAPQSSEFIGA

## FCCNc1cc2c(Nc3cccc(Br)c3)ncnc2cn1 [Compound H1, 4-[(3-Bromophenyl)amino]-6-(2-fluoroethylamino)pyrido[3,4-d]pyrimidine]
[1]
  IC50: 17 nM
EGFR (L858R)
  IC50: 15 nM
EGFR (T790M)
  IC50: 4110 nM
EGFR (T790M, L858R)
  IC50: 4020 nM

## FCCOc1cccc(Nc2ncnc3cnc(NCCN4CCOCC4)cc23)c1 [Compound H2, N^4-(3-(2-Fluoroethoxy)phenyl)-N^6-(2-morpholinoethyl)pyrido[3,4-d]pyrimidine-4,6-diamine]
[1]
  IC50: 7210 nM
[1]; comment on Table 1
  binding affinity to the wild-type EGFR (in words): low binding affinity
EGFR (L858R)
  IC50: 653 nM
EGFR (T790M)
  IC50: > 10000 nM
EGFR (T790M, L858R)
  IC50: > 10000 nM

## Fc1ccc(Nc2ncnc3cnc(NCCN4CCOCC4)cc23)cn1 [Compound H3, N^4-(6-Fluoropyridin-3-yl)-N^6-(2-morpholinoethyl)pyrido[3,4-d]pyrimidin-4,6-diamine]
[1]
  IC50: 3750 nM
EGFR (L858R)
  IC50: 686 nM
EGFR (T790M)
  IC50: > 10000 nM
EGFR (T790M, L858R)
  IC50: > 10000 nM

## O=C(/C=C/CN1CCN(CCF)CC1)Nc1cc2c(Nc3cccc(Br)c3)ncnc2cn1 [Compound H4, (E)-N-(4-((3-Bromophenyl)amino)pyrido[3,4-d]pyrimidin-6-yl)-4-(4-(2-fluoroethyl)piperazin-1-yl)but-2-enamide]
[1]
  IC50: 49 nM
EGFR (L858R)
  IC50: 58 nM
EGFR (T790M)
  IC50: 409 nM
EGFR (T790M, L858R)
  IC50: 406 nM
L858R-mutated EGFR; 2 h incubation after ATP and Poly(Glu, Tyr) substrate were added, read-out: EGFR Kinase Inhibition: IC50, L858R
  IC50: 15.6 ± 0.8 nM
L858R-mutated EGFR; comment on Table 2
  binding affinity to the L858R-mutated EGFR (in words): relatively high binding affinity
L858R/T790M-mutated EGFR; 2 h incubation after ATP and Poly(Glu, Tyr) substrate were added, read-out: EGFR Kinase Inhibition: IC50, L858R/T790M
  IC50: 326 ± 64 nM
L858R/T790M-mutated EGFR; comment on Table 2
  binding affinity to the L858R/T790M-mutated EGFR (in words): lower than AZD9291 and was higher than Erlotinib

## CNc1cc2c(Nc3cccc(Br)c3)ncnc2cn1 [PD158780, reference compound]
[1]
  IC50: 6 nM

## O=C(/C=C/CN1CCN(CC[18F])CC1)Nc1cc2c(Nc3cccc(Br)c3)ncnc2cn1 [[^18F]H4, (E)-N-(4-((3-Bromophenyl)amino)pyrido[3,4-d]pyrimidin-6-yl)-4-(4-(2-[^18F]fluoroethyl)piperazin-1-yl)but-2-enamide]
[2]
  uptake of [^18F]H4 into the H3255 cells: inhibited by gefitinib
[3]
  uptake of [^18F]H4 into the H1975 cells: approximately 50 % ID/mg protein
[4]
  uptake of [^18F]H4 into the H3255 cells: inhibited by AZD9291
[5]
  uptake of [^18F]H4 into the H1975 cells: approximately 50 % ID/mg protein
[6]; [11]
  Tumor/Blood Ratio: 1.99
  Tumor/Muscle Ratio: 3.47
[6]; [12]
  Tumor/Blood Ratio: 3.24
  Tumor/Muscle Ratio: 8.89
[6]; [13]
  Tumor/Blood Ratio: 3.28
  Tumor/Muscle Ratio: 5.75
[6]; [14]
  Tumor/Blood Ratio: 3.03
  Tumor/Muscle Ratio: 9.29
[6]; [15]
  Tumor/Blood Ratio: around 3
  Tumor/Muscle Ratio: exceeded 5
[6]; tumor-bearing mice, 30 to 180 min after administration, FIG. 3
  metabolism and excretion (transition from the liver to the intestine): quickly metabolized and excreted
[7]
  reduction in accumulation of [^18F]H4 in the H3255 tumor: 54%
[8]
  change of accumulation of [^18F]H4 in the H1975 tumor: hardly changed
[9]
  accumulation in PET/CT image, H3255 implant: accumulated specifically in the portion where H3255 was implanted
[10]
  accumulation in PET/CT image, H1975 implant: no specific accumulation
